One test concerns the target rat orexin 1 receptor (Rattus norvegicus, UniProt P56718). Briefly: Rat orexin 1 receptor radioligand binding. The following applies: HEK293 cells stably expressing rat orexin 1 receptor; apparent Ki; read-out: rOX1 Ki. The method, boiled down:
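Homogenized cell suspensions competed against 4 nM final of a tritiated oxadiazolyl-pyrrolidinyl thiazole methanone radioligand (35.3 Ci/mmol) in PBS, with DMSO ≤0.1%. Nonspecific binding defined with 10 μM almorexant; after washing and drying, bound radioactivity counted by scintillation.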

The target in the next test is human orexin 1 receptor (Homo sapiens, UniProt O43613). In words: Human orexin 1 receptor radioligand binding. Conditions: CHO cells stably expressing human orexin 1 receptor; apparent Ki; read-out: hOX1 Ki. The method, boiled down:
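Homogenized CHO cells stably expressing human orexin 1 receptor, in PBS. They were incubated 60 min at room temperature with 4 nM final tritiated thiazolyl-pyrrolidinyl-methanone radioligand, DMSO ≤0.1%. Nonspecific binding taken with 10 μM almorexant; bound radioactivity collected by GF/C filtration and scintillation-counted.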

In another test the target is human orexin 2 receptor (Homo sapiens (Human), UniProt O43614). In words: Human orexin 2 receptor radioligand binding ([3H]-EMPA). The following applies: HEK293 stably expressing human orexin 2 receptor; [3H]-EMPA; apparent Ki; read-out: hOX2 Ki. The method, boiled down:
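Competition binding with 2 nM final [3H]-EMPA in PBS against homogenized whole-cell suspension; DMSO ≤0.1%. Nonspecific binding defined with […] almorexant. Plates washed with PBS, dried, and bound radioactivity counted by scintillation.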

human orexin 2 receptor, sequence (O43614 whole entry): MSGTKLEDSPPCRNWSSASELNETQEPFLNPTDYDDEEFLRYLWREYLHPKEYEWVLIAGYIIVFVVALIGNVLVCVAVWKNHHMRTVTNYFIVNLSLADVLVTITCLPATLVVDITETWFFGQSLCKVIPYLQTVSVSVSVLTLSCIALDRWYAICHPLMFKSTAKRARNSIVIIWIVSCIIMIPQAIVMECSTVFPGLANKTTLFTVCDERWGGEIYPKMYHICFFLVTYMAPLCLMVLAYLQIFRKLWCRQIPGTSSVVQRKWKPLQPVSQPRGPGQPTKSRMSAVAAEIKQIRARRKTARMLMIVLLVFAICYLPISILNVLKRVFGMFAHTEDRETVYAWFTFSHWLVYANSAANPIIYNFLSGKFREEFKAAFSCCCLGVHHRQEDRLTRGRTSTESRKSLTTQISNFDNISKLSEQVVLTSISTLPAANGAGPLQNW

As for `Cc1cnc(C(=O)N2CCC[C@@H](Nc3ccc(Br)cn3)[C@@H]2C)c(-n2nccn2)c1` [Example 92, ((2S,3R)-3-((5-bromopyridin-2-yl)amino)-2-methylpiperidin-1-yl)(5-methyl-3-(2H-1,2,3-triazol-2-yl)pyridin-2-yl)methanone], the Ki was 19 nM on rat orexin 1 receptor, 18 nM at human orexin 1 receptor and 4200 nM at human orexin 2 receptor.
Turning to `Cc1ccc(C(=O)N2CCC[C@@H](Nc3ccc(C(F)(F)F)cn3)[C@@H]2C)c(-n2ccnn2)n1` [Example 93, (6-methyl-2-(1H-1,2,3-triazol-1-yl)pyridin-3-yl)((2S,3R)-2-methyl-3-((5-(trifluoromethyl)pyridin-2-yl)amino)piperidin-1-yl)methanone], the results for the Ki on rat orexin 1 receptor, at human orexin 1 receptor and on human orexin 2 receptor were 52 nM, 38 nM and 2700 nM, respectively.
The matching figures for `Cc1cnc(C(=O)N2CCC[C@@H](Nc3ncc(C(F)(F)F)cn3)[C@@H]2C)c(-n2nccn2)c1` [Example 94, ((2S,3R)-2-methyl-3-((5-(trifluoromethyl)pyrimidin-2-yl)amino)piperidin-1-yl)(5-methyl-3-(2H-1,2,3-triazol-2-yl)pyridin-2-yl)methanone]: 38 nM, 25 nM and above 10000 nM.
In the case of `COc1ccc(C(=O)N2CCC[C@@H](Nc3ncc(C(F)(F)F)cn3)[C@@H]2C)c(-n2nccn2)c1` [Example 95, (4-methoxy-2-(2H-1,2,3-triazol-2-yl)phenyl)((2S,3R)-2-methyl-3-((5-(trifluoromethyl)pyrimidin-2-yl)amino)piperidin-1-yl)methanone], the Ki on rat orexin 1 receptor was 81 nM; on human orexin 1 receptor, 103 nM; at human orexin 2 receptor, above 10000 nM.
`Cc1ccc(C(=O)N2CCC[C@@H](Nc3cnc(C(F)(F)F)cn3)[C@@H]2C)c(-n2ccnn2)n1` [Example 96, (6-methyl-2-(1H-1,2,3-triazol-1-yl)pyridin-3-yl)((2S,3R)-2-methyl-3-((5-(trifluoromethyl)pyrazin-2-yl)amino)piperidin-1-yl)methanone]: the Ki at rat orexin 1 receptor came out at 81 nM; on human orexin 1 receptor, 47 nM; at human orexin 2 receptor it was 3900 nM.
For `COc1ccc(C(=O)N2CCC[C@@H](Nc3ccc(C(F)(F)F)cn3)[C@@H]2C)c(-n2nccn2)c1` [Example 97, (4-methoxy-2-(2H-1,2,3-triazol-2-yl)phenyl)((2S,3R)-2-methyl-3-((5-(trifluoromethyl)pyridin-2-yl)amino)piperidin-1-yl)methanone], the figures for the Ki at rat orexin 1 receptor, at human orexin 1 receptor and at human orexin 2 receptor were 44 nM, 32 nM and 6100 nM, respectively.
The like results for `Cc1ccc(C(=O)N2CCC[C@@H](Nc3ccc(C(F)(F)F)cn3)[C@@H]2C)c(-n2nccn2)n1` [Example 98, (6-methyl-2-(2H-1,2,3-triazol-2-yl)pyridin-3-yl)((2S,3R)-2-methyl-3-((5-(trifluoromethyl)pyridin-2-yl)amino)piperidin-1-yl)methanone] were, in that order, 26 nM, 12 nM and above 10000 nM.
The matching figures for `Cc1ccc(C(=O)N2CCC[C@@H](Nc3ccc(Cl)cn3)[C@@H]2C)c(-n2nccn2)c1` [Example 99, ((2S,3R)-3-((5-chloropyridin-2-yl)amino)-2-methylpiperidin-1-yl)(4-methyl-2-(2H-1,2,3-triazol-2-yl)phenyl)methanone]: 23 nM, 15 nM and 1400 nM.
The matching figures for `Cc1cnc(C(=O)N2CCC[C@@H](Oc3ncc(C(F)(F)F)cn3)[C@@H]2C)c(-n2nccn2)c1` [Example 101, ((2S,3R)-2-methyl-3-((5-(trifluoromethyl)pyrimidin-2-yl)oxy)piperidin-1-yl)(5-methyl-3-(2H-1,2,3-triazol-2-yl)pyridin-2-yl)methanone]: 215 nM, 446 nM and above 10000 nM.
Take `Cc1ccc(C(=O)N2CCC[C@@H](Oc3ncc(C(F)(F)F)cn3)[C@@H]2C)c(-n2nccn2)c1` [Example 102, (4-methyl-2-(2H-1,2,3-triazol-2-yl)phenyl)((2S,3R)-2-methyl-3-((5-(trifluoromethyl)pyrimidin-2-yl)oxy)piperidin-1-yl)methanone]: the Ki at rat orexin 1 receptor stood at 28 nM; on human orexin 1 receptor it was 25 nM; at human orexin 2 receptor it was 5200 nM.
For `C[C@H]1[C@H](Oc2ncc(C(F)(F)F)cn2)CCCN1C(=O)c1ccccc1-n1nccn1` [Example 103, (2-(2H-1,2,3-triazol-2-yl)phenyl)((2S,3R)-2-methyl-3-((5-(trifluoromethyl)pyrimidin-2-yl)oxy)piperidin-1-yl)methanone], the Ki was 44 nM at rat orexin 1 receptor, 97 nM at human orexin 1 receptor and 2300 nM at human orexin 2 receptor.
The like results for `Cc1ccc(-n2nccn2)c(C(=O)N2CCC[C@@H](Oc3ncc(C(F)(F)F)cn3)[C@@H]2C)n1` [Example 104, ((2S,3R)-2-methyl-3-((5-(trifluoromethyl)pyrimidin-2-yl)oxy)piperidin-1-yl)(6-methyl-3-(2H-1,2,3-triazol-2-yl)pyridin-2-yl)methanone] were, in that order, 119 nM, 173 nM and above 10000 nM.
The matching figures for `Cc1ccc(C(=O)N2CCC[C@@H](Oc3ccc(C(F)(F)F)cn3)[C@@H]2C)c(-n2nccn2)c1` [Example 112, (4-methyl-2-(2H-1,2,3-triazol-2-yl)phenyl)((2S,3R)-2-methyl-3-((5-(trifluoromethyl)pyridin-2-yl)oxy)piperidin-1-yl)methanone]: 8 nM, 12 nM and 562 nM.
